Test results: patent EP0270316A2, “Topical compositions comprising 1-substituted imidazoles and NSAIDs for treatment of acne” (PFIZER INC., priority 1986, dated 1988)
Values after ≈ are worked out from the molar mass of the structure shown.

Assays:
P. acnes = assay: microbe, parasite or virus in culture; conditions: Cutibacterium acnes, read-out: average minimum inhibitory concentration (MIC)
[1] = human skin treated with radiolabeled tioconazole; frozen section autoradiography
Source text: This property is readily measurable by methods known to those skilled in the art such as, for example, skin layer analysis which measures the amount of radiolabeled drug, e.g. tioconazole, in human skin treated with compositions containing the drug. [[…] et al., Brit. J. Dermatol. 115, Suppl. 31, 36-40 (1986)].

MIC (P. acnes): 5 µg/mL (≈ 12.9 µM)
localization in skin [1]: localized in the sebaceous follicle
SMILES: Clc1ccc(C(Cn2ccnc2)OCc2ccsc2Cl)c(Cl)c1 (centres unmarked) [Tioconazole, 1-[2-[(2-chloro-3-thienyl)methoxy]-2-(2,4-dichlorophenyl)ethyl]-1H-imidazole]
